Assay results taken from PubChem BioAssay (NCI).
Values joined by “and” are separate entries in the source; they are usually repeats but may differ in a detail not shown here. Equal values may be shown once.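 Five compound concentrations were applied to cells in 96-well plates for 48 hours; endpoints were derived by simple linear interpolation of the resulting dose-response curve. GI50 = concentration required for 50% inhibition of growth. TGI is the concentration that stops growth completely.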

Key:
Assay in all cases: NCI tumour cell line growth inhibition, 48 h
M19-MEL melanoma = tested on: M19-MEL melanoma
LXFL 529 NSCLC = tested on: LXFL 529 NSCLC
XF 498 CNS = tested on: XF 498 CNS
DMS 273 small cell lung = tested on: DMS 273 small cell lung
HOP-18 NSCLC = tested on: HOP-18 NSCLC
DMS 114 small cell lung = tested on: DMS 114 small cell lung
RXF-631 renal = tested on: RXF-631 renal
DLD-1 colon = tested on: DLD-1 colon
SN12K1 renal = tested on: SN12K1 renal
P388 leukemia = tested on: P388 leukemia

Structure (SMILES)	TGI (M19-MEL melanoma)	TGI (LXFL 529 NSCLC)	TGI (XF 498 CNS)	TGI (DMS 273 small cell lung)	TGI (HOP-18 NSCLC)	TGI (DMS 114 small cell lung)	TGI (RXF-631 renal)	TGI (DLD-1 colon)	GI50 (XF 498 CNS)	GI50 (HOP-18 NSCLC)	GI50 (M19-MEL melanoma)	GI50 (SN12K1 renal)	TGI (SN12K1 renal)	TGI (P388 leukemia)	GI50 (DLD-1 colon)	GI50 (DMS 273 small cell lung)
CCN(CC)/[N+]([O-])=N/OC	> 100 µM	> 100 µM	> 100 µM	> 100 µM	–	–	–	–	–	–	–	–	–	–	–	–
CCOC(=O)C(C)OC(=O)c1ccc(C)cc1 (stereo not given)	> 100 µM	> 100 µM	> 100 µM	> 100 µM	> 100 µM	> 100 µM	> 100 µM	> 100 µM	–	–	–	–	–	–	–	–
COc1cccc(/C=N/[N-]C(N)=O)c1[O-].[Cu+2].[OH3+].c1cnc2c(c1)ccc1cccnc12	–	–	6.36 µM	–	–	–	–	–	2.3 µM	–	–	–	–	–	–	–
COC(=N)C(C)C	> 100 µM	> 100 µM	–	> 100 µM	–	> 100 µM	–	> 100 µM	–	–	–	–	–	–	–	–
CCOC(=O)C(=CNC(Cc1c[nH]c2ccccc12)C(=O)OC)C(=O)OCC (stereo not given)	> 100 µM	> 100 µM	> 100 µM	–	> 100 µM	> 100 µM	> 100 µM	> 100 µM	–	–	–	–	–	–	–	–
O=CC(O)C(O)C(O)COc1cc(CO)cc2c1C(=O)c1ccccc1C2=O (stereo not given)	> 100 µM	> 100 µM	> 100 µM	> 100 µM	> 100 µM	> 100 µM	> 100 µM	> 100 µM	–	–	–	–	–	–	–	–
C=C1CCCC(C)(C)[C@@H]1CC/C(C)=C/Cn1c2cccc(=O)c-2nc2ccccc21	–	–	–	24.1 µM and 3.29 µM	> 100 µM and 18.2 µM	2.3 µM	–	–	2.8 µM	37.2 µM	3.07 µM	2.89 µM	15.5 µM and 13.2 µM	> 100 µM	4.86 µM	3.02 µM
